Experimental data published in the supplement of paper PMC11821682.

Experiments:
Danio rerio embryo [1] = assay: LEL larval photomotor response dark phase 120 hpf
Procedure: (§1)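 ZBEscreen: dechorionated Tropical 5D zebrafish embryos were exposed from 4 hpf in 96-well plates (1% DMSO, 28 °C). All compounds were first tested at 100 µM; hits were retested at 0.005-100 µM. Morphology and mortality were scored at 120 hpf and fitted as BMC10 (3-parameter log-logistic, extra risk). The embryonic photomotor response at 24 hpf and the larval photomotor response at 120 hpf are given as lowest effect levels (K-S test, p<0.01). NA = not significant up to 100 µM; NT = not tested.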

HL-60 = assay: Cell Health Index (toxicity pseudo-probability over dose series) (index 0-1); higher = more cytotoxic / cell stress;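 further: HL-60 cells exposed 4 h at 37 °C to ten threefold dilutions spanning 5 nM to 100 µM, multiparametric flow cytometry features scored by machine-learning classification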
Danio rerio embryo [2] = assay: BMC10 any morphological effect or mortality at 120 hpf; higher = less toxic
Danio rerio embryo [3] = assay: LEL embryonic photomotor response 24 hpf
Procedure: as §1

Danio rerio embryo [4] = assay: BMC10 mortality 24-120 hpf; higher = less toxic
Procedure: as §1

Compound	LEL larval photomotor response dark phase 120 hpf (Danio rerio embryo [1])	Cell Health Index (HL-60)	BMC10 any morphological effect or mortality (Danio rerio embryo [2])	LEL embryonic photomotor response 24 hpf (Danio rerio embryo [3])	BMC10 mortality 24-120 hpf (Danio rerio embryo [4])
C[C@H]1[C@H](OC(=O)CCC(=O)O)O[C@@H]2O[C@@]3(C)CC[C@H]4[C@H](C)CC[C@@H]1[C@@]24OO3 [Artesunate]	> 100 µM	0.146	7.91 µM	> 100 µM	9.08 µM
C=C(C)[C@@H]1CC[C@]2(C(=O)O)CC[C@]3(C)[C@H](CC[C@@H]4[C@@]5(C)CC[C@H](OC(=O)CC(C)(C)C(=O)O)C(C)(C)[C@@H]5CC[C@]43C)[C@@H]12 [Bevirimat]	> 100 µM	0.321	1.29 µM	11.1 µM	3.82 µM
COC(=O)c1cc(OC)c2c(c1-c1c(CO)cc(OC)c3c1OCO3)OCO2 [Bicyclol]	> 100 µM	0.207	4.07 µM	0.046 µM	10.7 µM
CC(C)(C)C(O)C(Oc1ccc(-c2ccccc2)cc1)n1cncn1 (stereo not given) [Bitertanol]	11.1 µM	0.408	16.4 µM	33.3 µM	30.3 µM
Oc1c(Cl)cc(Cl)cc1Sc1cc(Cl)cc(Cl)c1O [Bithionol]	> 100 µM	0.826	0.577 µM	3.7 µM	0.795 µM
CC(C)C[C@H](NC(=O)[C@H](Cc1ccccc1)NC(=O)c1cnccn1)B(O)O [Bortezomib]	0.14 µM	0.24	13.2 µM	> 100 µM	17.4 µM
C[C@H]1CCC/C=C/[C@@H]2C[C@H](O)C[C@H]2[C@H](O)/C=C/C(=O)O1 [Brefeldin A]	> 100 µM	0.226	1.09 µM	11.1 µM	3.95 µM
Cc1c(-c2ccc(-c3ccccc3F)cc2)nc2ccc(F)cc2c1C(=O)O [Brequinar]	> 100 µM	0.332	0.331 µM	11.1 µM	1.41 µM
C[C@]12CC[C@H](O)C[C@H]1CC[C@@H]1[C@@H]2CC[C@]2(C)[C@@H](c3ccc(=O)oc3)C[C@H]3O[C@]132 [Bufogenin]	> 100 µM	0.504	2.23 µM	11.1 µM	1.41 µM
COc1ccc(-c2oc3cc(OC)c(OC)c(O)c3c(=O)c2OC)cc1O [Casticin]	> 100 µM	0.355	1.26 µM	3.7 µM	1.28 µM
CC[C@H]1CN2CCc3cc(OC)c(OC)cc3[C@@H]2C[C@@H]1C[C@H]1NCCc2cc(O)c(OC)cc21 [Cephaeline]	0.41 µM	0.562	0.069 µM	3.7 µM	0.159 µM
COc1ccc2cc1Oc1ccc(cc1)C[C@H]1c3c(cc4c(c3Oc3cc5c(cc3OC)CCN(C)[C@@H]5C2)OCO4)CCN1C [Cepharanthine]	0.41 µM	0.911	10.5 µM	> 100 µM	10.9 µM
CN1Cc2c(ccc3c2OCO3)[C@@H]2[C@H]1c1cc3c(cc1C[C@@H]2O)OCO3 [Chelidonine]	> 100 µM	0.277	0.064 µM	> 100 µM	0.079 µM
CN1CCN(C(c2ccccc2)c2ccc(Cl)cc2)CC1.Cl (stereo not given) [Chlorcyclizine]	> 100 µM	0.478	8.84 µM	11.1 µM	15.9 µM
O=c1cc(-c2ccccc2)oc2cc(O)cc(O)c12 [Chrysin]	11.1 µM	0.435	28.6 µM	33.3 µM	28.3 µM
CC(=O)O[C@H]1[C@H]2O[C@]23[C@@H]2CC[C@@H]4C[C@@H](O)CC[C@]4(C)[C@H]2CC[C@]3(C)[C@H]1c1ccc(=O)oc1 [Cinobufagin]	33.3 µM	0.556	27.2 µM	1.23 µM	29.9 µM
Cl.Clc1ccc(Cn2c(CN3CCCC3)nc3ccccc32)cc1 [Clemizole]	> 100 µM	0.453	4.04 µM	3.7 µM	10.1 µM
C/C=C(/C)C(=O)OC(C)(C)[C@@H]1Cc2c(ccc3ccc(=O)oc23)O1 [Columbianadin]	> 100 µM	0.399	4.14 µM	3.7 µM	4.89 µM
COc1cc(/C=C\C(=O)CC(=O)/C=C\c2ccc(O)c(OC)c2)ccc1O [Curcumin]	> 100 µM	0.401	30.8 µM	> 100 µM	40 µM
c1ccc(CNc2nc(NCc3ccccc3)c3ccccc3n2)cc1 [DBeQ]	> 100 µM	0.929	1.15 µM	1.23 µM	1.31 µM
CCC[C@H](NC(=O)/C(C#N)=C/c1cccc(Br)n1)c1ccccc1 [Degrasyn]	> 100 µM	0.909	0.411 µM	1.23 µM	1.92 µM
O[C@H]1CC[C@H](Nc2nc(-c3ccccc3)nc3[nH]ccc23)CC1 [Derenofylline]	> 100 µM	0.201	22.7 µM	100 µM	36.8 µM
C[C@H]1[C@@H](O)O[C@@H]2O[C@@]3(C)CC[C@H]4[C@H](C)CC[C@@H]1[C@@]24OO3 [Dihydroartemisinin]	1.23 µM	0.215	2.99 µM	> 100 µM	2.11 µM
COc1cccc2c1C(=O)c1c(O)c3c(c(O)c1C2=O)C[C@@](O)(C(=O)CO)C[C@@H]3O[C@H]1C[C@H](N)[C@H](O)[C@H](C)O1.Cl [Doxorubicin]	> 100 µM	0.852	3.18 µM	11.1 µM	7.71 µM
O=C(N/N=C/c1ccc(O)c(O)c1)c1cc2ccccc2cc1O [Dynasore]	> 100 µM	0.48	10.2 µM	33.3 µM	7.92 µM
CC(C)(C)c1cc(C(=O)/C(C#N)=N/Nc2cccc(Cl)c2)no1 [ESI-09]	> 100 µM	0.698	0.422 µM	11.1 µM	0.13 µM

Compound	LEL larval photomotor response dark phase 120 hpf (Danio rerio embryo [1])	Cell Health Index (HL-60)	BMC10 any morphological effect or mortality (Danio rerio embryo [2])	LEL embryonic photomotor response 24 hpf (Danio rerio embryo [3])	BMC10 mortality 24-120 hpf (Danio rerio embryo [4])
O=C1Nc2ccc(Cl)cc2[C@@](C#CC2CC2)(C(F)(F)F)O1 [Efavirenz]	> 100 µM	0.874	1.3 µM	3.7 µM	12 µM
COc1ccc2cc1Oc1ccc(cc1)C[C@H]1c3cc(c(OC)cc3CCN1C)Oc1c(O)c(OC)cc3c1[C@H](C2)N(C)CC3 [Fangchinoline]	> 100 µM	0.884	6.15 µM	> 100 µM	46.2 µM
CN1CC[C@H](c2c(O)cc(O)c3c(=O)cc(-c4ccccc4Cl)oc23)[C@H](O)C1.Cl [Flavopiridol]	> 100 µM	0.49	1.2 µM	3.7 µM	1.71 µM
NC(=O)c1cccc(-c2cc(Nc3ccc(OC(F)(F)F)cc3)ncn2)c1 [GNF-2]	> 100 µM	0.869	3.7 µM	11.1 µM	4.78 µM
O=C(NCCO)c1cccc(-c2cc(Nc3ccc(OC(F)(F)F)cc3)ncn2)c1 [GNF-5]	33.3 µM	0.81	28.6 µM	> 100 µM	36.2 µM
O=c1c(O)c(-c2ccccc2)oc2cc(O)cc(O)c12 [Galangin]	> 100 µM	0.411	12.3 µM	100 µM	32.8 µM
CC1(C)C=Cc2c(ccc3c2OC[C@@H](c2ccc(O)cc2O)C3)O1 [Glabridin]	> 100 µM	0.58	3.57 µM	11.1 µM	9.73 µM
Fc1cc(F)c2c(c1)C1C=CCC1C(c1cccnc1)N2 (stereo not given) [Golgicide A]	> 100 µM	0.317	1.37 µM	3.7 µM	2.32 µM
CC(C)(C)Oc1cccc2nc(N)nc(N)c12 [HZ-1157]	> 100 µM	0.463	> 100 µM	33.3 µM	16.1 µM
COC(=O)C[C@](O)(CCC(C)(C)O)C(=O)O[C@@H]1C(OC)=C[C@]23CCCN2CCc2cc4c(cc2[C@H]13)OCO4 [Harringtonine]	> 100 µM	0.376	10.8 µM	33.3 µM	26.6 µM
CC(C)c1cccc(=O)c(O)c1 [Hinokitiol]	> 100 µM	0.335	3.83 µM	33.3 µM	10.1 µM
C=CCc1ccc(O)c(-c2ccc(O)c(CC=C)c2)c1 [Honokiol]	> 100 µM	0.542	5.7 µM	3.7 µM	9.2 µM
O=C1C=CC2=C(C(OC/C=C(C)/C)=C(OC=C3)C3=C2)O1 [Imperatorin]	> 100 µM	0.307	2.05 µM	3.7 µM	10.8 µM
NC(=O)c1ccc(I)c([N+](=O)[O-])c1 [Iniparib]	> 100 µM	0.283	10.2 µM	33.3 µM	33.9 µM
CCC(C)n1ncn(-c2ccc(N3CCN(c4ccc(OC[C@H]5CO[C@](Cn6cncn6)(c6ccc(Cl)cc6Cl)O5)cc4)CC3)cc2)c1=O (stereo not given in full) [Itraconazole]	0.41 µM	0.382	0.113 µM	3.7 µM	0.276 µM
CC[C@H](C)[C@H]1O[C@]2(CC[C@@H]1C)C[C@@H]1C[C@@H](C/C=C(\C)[C@@H](O[C@H]3C[C@H](OC)[C@@H](O[C@H]4C[C@H](OC)[C@@H](O)[C@H](C)O4)[C@H](C)O3)[C@@H](C)/C=C/C=C3\CO[C@@H]4[C@H](O)C(C)=C[C@@H](C(=O)O1)[C@]34O)O2 [Ivermectin B1a]	0.41 µM	0.687	0.156 µM	1.23 µM	4.04 µM
COc1oc(=O)c2cc(N)ccc2c1Cl [JCP251]	11.1 µM	0.306	42.2 µM	100 µM	71.8 µM
CNc1ccc([N+](=O)[O-])c(Nc2ccc3[nH]ncc3c2)n1 [KRIBB11]	1.23 µM	0.372	3.27 µM	11.1 µM	0.805 µM
O=c1c(O)c(-c2ccc(O)cc2)oc2cc(O)cc(O)c12 [Kaempferol]	> 100 µM	0.463	10 µM	> 100 µM	38.4 µM
CC(C)c1cnn2c(NCc3ccccc3-n3cccn3)nc(OC3CCCNC3)nc12 (stereo not given) [LDC-4297]	> 100 µM	0.847	15.3 µM	33.3 µM	32.8 µM
C=CC(C)(C)c1cc(/C=C/C(=O)c2ccc(O)cc2)c(OC)cc1O [Licochalcone A]	> 100 µM	0.828	0.64 µM	3.7 µM	1.16 µM
Cc1cnc(-c2ccccc2C(C)C)nc1NCc1ccc(-n2ccnn2)cc1 [ML-323]	> 100 µM	0.577	9.11 µM	11.1 µM	10.5 µM
CN(C)CCCNC(=O)c1ccc(-c2cc(O)c3ncccc3c2)cc1 [ML-324]	> 100 µM	0.537	15.9 µM	11.1 µM	15.9 µM
O=C(Nc1cccc(NC(=O)c2cccc(O)c2O)c1)c1cccc(O)c1O [MST-312]	> 100 µM	0.688	65.3 µM	100 µM	74.3 µM
CC1(C)CC[C@]2(C(=O)O)CC[C@]3(C)C(=CC[C@@H]4[C@@]5(C)C[C@@H](O)[C@H](O)C(C)(C)C5CC[C@]43C)[C@H]2C1 (stereo not given in full) [Maslinic acid]	> 100 µM	0.494	13.3 µM	> 100 µM	13.3 µM
Cl.O[C@@H](c1cc(C(F)(F)F)nc2c(C(F)(F)F)cccc12)[C@H]1CCCCN1 [Mefloquine]	> 100 µM	0.931	8.89 µM	0.015 µM	10.7 µM
